# Measurements reported in patent US20010046968A1, “Opioid growth factor modulates angiogenesis” (priority 2000, published 2001).
# “Also recorded” adds a separate entry of the source.
# How the values were obtained:
# [1] = tested on: CAM blood vessels (angiogenesis); test: Chorioallantoic membrane (CAM) model, drug-impregnated methylcellulose disk, image analysis of blood vessels (Example 1); assay type: in vivo, chicken; settings: for effect on angiogenesis / blood vessel growth vs control: 5 μg each per disk; for Blood Vessel Mean Length / Blood Vessel Number / Blood Vessel Length: 48 hours, mean ± SEM; for Blood Vessel Length: total length
# Description: (§1) The CAM model utilized in these studies has been described by Mazo et al. (FASEB J. 13: A527, 1999). In brief, fertilized white broiler chicken eggs were obtained from a local hatchery and kept at room temperature for 48 hours. The outside of the shells were washed with soap, and placed in a 70% ethyl alcohol bath for 30 seconds. The eggs were incubated at 37° C. for three days and rotated 180 degrees three times daily. After incubation, the eggs were cleansed with an iodine solution and dried on a sterile tray. The eggs were cracked, and the embryos explanted into spherical plastic 100 mm×25 mm weigh boats. Specimens were covered with a plastic lid, placed in a humidified chamber at 37° C., and maintained for 48 to 72 hours until the CAM achieved at least a 10 mm diameter.
# Methylcellulose disks were prepared as reported by Mazo et al. (FASEB J. 13: A527, 1999). […] These doses were selected on the basis of prior animal and culture studies (Zagon I. S. et al., Am. J Physiol, 270: R22-R32 (1996); McLaughlin P. J. et al., Int. J. Oncol., 14: 991-998 (1999)). An equivalent volume of distilled water was utilized as a control (n=13). Another series of experiments employed retinoic acid (RA: 1 μg) (Oikawa T. et al., Cancer Letters, 48: 157-162 (1989)) (n=12), VEGF (1 μg) (Wilting J. et al., Cell Tissue Res., 274: 163-174 (1993)) (n=10) and an equivalent volume of water (n=10) to validate the CAM model employed, and to provide an internal comparison to the potential angiogenic effects of OGF with other known angioactive agents. These methylcellulose solutions were placed on the tips of 3.2 mm diameter Teflon rods and allowed to dry at room temperature for 1 hour under a vacuum hood. The resultant dried disks were removed from the Teflon rods and placed on the outer third of the CAM. Only one disk was placed on each CAM. The eggs were returned to the incubator for an additional 48 hours of growth prior to examination by image analysis (Mazo J. E. et al., FASEB J., 13: A527 (1999)).
# Image analysis was preformed as described previously (Mazo J. E. et al., FASEB J, 13: A527 (1999)). The location of the disk was located visually on the CAM. An identifying mark was placed in the center of the disk and 2 ml of a 10% intralipid solution was injected into the CAM obscuring the underlying yolk vessels and providing an opaque white background for the superficial vessels. The CAM was imaged on a three-chip digital camera (DKC 500 Sony, Tokyo, Japan), digitized, and exported to a personal computer (FIG. 1). A 100 mm^2 region was defined around the disk in which blood vessel quantitation was performed (Optimas 6.0, Mediacybernetics, Bothell, Wash.). Calibration was achieved by imaging a ruler placed adjacent to the embryo preparation.
# All arteries and veins in this designated region centered on the applied disk were analyzed. From the digitized image, an overlying mask was created and all blood vessels were traced within the region in an unblinded manner by two different individuals. The total number of blood vessels were counted and their individual lengths added to obtain total blood vessel length.
# Data were exported to Microsoft Excel (Excel 97, Microsoft, Redmond, Wash.). All values were expressed as the mean±standard error of the mean. Statistical analysis was performed using the SigmaStat 1.0 statistical software package (Jandel, San Rafael, Calif.). The Mann-Whitney rank sum test or the Student t test was used to compare continuous data. Either the Fischer exact test or χ^2 test were used for dichotomous data. A p value of less than 0.05 indicated statistical significance.
# [2] = tested on: CAM arteries and veins (angiogenesis); test: CAM assay with separate counting of arteries and veins (Example 2); assay type: in vivo, chick; settings: for Number of Vessels, Artery / Number of Vessels, Vein / Total Vessel Length, Artery / Total Vessel Length, Vein / Number of Vessels, A/V Ratio / Total Vessel Length, A/V Ratio: mean ± SEM
# Description: The CAM assay described above was utilized. After 3 days of incubation, fertilized chick embryos were explanted and 3.2 mm methylcellulose disk containing a compound was placed onto the CAM surface. After 2 days of growth, the CAM arteries and veins were identified and imaged with a digital camera. Arteries and veins were identified based on the presence of vessel pulsation (arteries), color, and direction of blood flow within the vessels. The main artery was oriented vertically with flow originating inferiorly. A white 10% intralipid solution was injected into the CAM to enhance visualization. Total number and length of veins and arteries were counted and measured.
# [3] = tested on: embryos; test: Embryo survival after placement of drug onto the CAM; assay type: in vivo, chicken; settings: 48 hours after placement of drug onto the CAM
# Description: as §1
# Methylcellulose disks were prepared as reported by Mazo et al. (FASEB J. 13: A527, 1999). […] These doses were selected on the basis of prior animal and culture studies (Zagon I. S. et al., Am. J Physiol, 270: R22-R32 (1996); McLaughlin P. J. et al., Int. J. Oncol., 14: 991-998 (1999)). An equivalent volume of distilled water was utilized as a control (n=13). […]
# [4] = 1 μg per disk, another series of experiments
compound,measurement,setting,value
"C=CCN1CC[C@]23c4c5ccc(O)c4O[C@H]2C(=O)CC[C@@]3(O)[C@H]1C5 [NAL, naloxone, reference compound]",effect on angiogenesis / blood vessel growth vs control,[1],no effect on vessel growth
"O=C1CC[C@@]2(O)[C@H]3Cc4ccc(O)c5c4[C@@]2(CCN3CC2CC2)[C@H]1O5 [Naltrexone, reference compound]",effect on angiogenesis / blood vessel growth vs control,[1],Vessel inhibition is no longer seen
same,effect on total blood vessel length vs control,[1]; 5 μg per disk,increased
same,effect on total number of blood vessels vs control,[1]; 5 μg per disk,increased
same,effect on mean blood vessel length vs control,"[1]; 5 μg per disk, listed as NTX",decreased; also recorded: marked decrease
same,"Number of Vessels, Artery",[2]; 0.1 μg disk,80 ± 6
same,"Number of Vessels, Vein",[2]; 0.1 μg disk,83 ± 4
same,"Total Vessel Length, Artery",[2]; 0.1 μg disk,112 ± 6 mm
same,"Total Vessel Length, Vein",[2]; 0.1 μg disk,118 ± 6 mm
same,"Number of Vessels, Artery",[2]; 5.0 μg disk,203 ± 7
same,"Number of Vessels, Vein",[2]; 5.0 μg disk,97 ± 4
same,"Total Vessel Length, Artery",[2]; 5.0 μg disk,174 ± 4 mm
same,"Total Vessel Length, Vein",[2]; 5.0 μg disk,105 ± 2 mm
same,effect on mean length of blood vessels,[2]; summary of Table II,decreased
same,effect on total number and length of blood vessels in comparison to controls,[2]; summary of Table II,markedly increased both total number and length of all blood vessels
"CC1=C(/C=C/C(C)=C/C=C/C(C)=C/C(=O)O)C(C)(C)CCC1 [Retinoic acid, retinoic acid, reference compound]",decrease in number of blood vessels compared to control group,[1]; 1 μg per disk,60%
same,decrease in total blood vessel length compared to control group,[1]; 1 μg per disk,33%
same,increase in mean blood vessel length relative to control group,[1]; 1 μg per disk,75%
same,Blood Vessel Mean Length,[1]; [4],2.07 ± 0.13 mm
same,Blood Vessel Number,[1]; [4],79 ± 10
same,Blood Vessel Length,[1]; [4],153 ± 11 mm
same,"Number of Vessels, A/V Ratio",[2]; dose not given,1.5 ± 0.1
same,"Number of Vessels, Artery",[2]; dose not given,60 ± 5
same,"Number of Vessels, Vein",[2]; dose not given,39 ± 3
same,"Total Vessel Length, A/V Ratio",[2]; dose not given,1.3 ± 0.1
same,"Total Vessel Length, Artery",[2]; dose not given,83 ± 5 mm
same,"Total Vessel Length, Vein",[2]; dose not given,66 ± 4 mm
VEGF,decrease in mean blood vessel length in comparison to control,[1]; 1 μg per disk,33%
same,effect on blood vessel growth vs control,[1]; 1 μg per disk,excitatory effect on blood vessel growth
same,effect on calculated mean vessel length vs control,[1]; 1 μg per disk,decreased
same,effect on number of blood vessels vs control,[1]; 1 μg per disk,markedly increased
same,effect on total length of blood vessels vs control,[1]; 1 μg per disk,marked increase
same,increase in total vessel length in comparison to control,[1]; 1 μg per disk,22%
same,increase in vessel number in comparison to control,[1]; 1 μg per disk,83%
same,Blood Vessel Mean Length,[1]; [4],0.79 ± 0.02 mm
same,Blood Vessel Number,[1]; [4],358 ± 16
same,Blood Vessel Length,[1]; [4],280 ± 7 mm
same,"Number of Vessels, A/V Ratio",[2]; 0.2 μg disk,1.3 ± 0.1
same,"Number of Vessels, Artery",[2]; 0.2 μg disk,83 ± 5
same,"Number of Vessels, Vein",[2]; 0.2 μg disk,75 ± 11
same,"Total Vessel Length, A/V Ratio",[2]; 0.2 μg disk,1.2 ± 0.1
same,"Total Vessel Length, Artery",[2]; 0.2 μg disk,117 ± 3 mm
same,"Total Vessel Length, Vein",[2]; 0.2 μg disk,109 ± 14 mm
same,"Number of Vessels, A/V Ratio",[2]; 1.0 μg disk,2.2 ± 0.2
same,"Number of Vessels, Artery",[2]; 1.0 μg disk,248 ± 13
same,"Number of Vessels, Vein",[2]; 1.0 μg disk,120 ± 7
same,"Total Vessel Length, A/V Ratio",[2]; 1.0 μg disk,1.5 ± 0.2
same,"Total Vessel Length, Artery",[2]; 1.0 μg disk,173 ± 8 mm
same,"Total Vessel Length, Vein",[2]; 1.0 μg disk,117 ± 5 mm
[Met^5]-enkephalin [OGF],effect on angiogenesis / blood vessel growth vs control,[1],blood vessel growth was suppressed; also recorded: marked inhibitory effect on angiogenesis
same,decrease in number of blood vessels in comparison to controls,[1]; 5 μg per disk,35%
same,decrease in total blood vessel length in contrast to control,[1]; 5 μg per disk,20%
same,effect on mean blood vessel length vs control,[1]; 5 μg per disk,significantly increases
same,effect on total blood vessel length vs control,[1]; 5 μg per disk,significantly inhibited
same,effect on total number of blood vessels vs control,[1]; 5 μg per disk,significantly decreases
same,increase in mean blood vessel length from control values,[1]; 5 μg per disk,23%
same,Blood Vessel Number,"[1]; 5 μg per disk, 100 mm^2 region around disk",102 ± 11
same,Blood Vessel Mean Length,"[1]; 5 μg per disk, 100 mm^2 region",1.81 ± 0.13 mm
same,Blood Vessel Length,"[1]; 5 μg per disk, 100 mm^2 region",179 ± 12 mm
same,"Number of Vessels, A/V Ratio",[2]; 1.0 μg disk,1.1 ± 0.2
same,"Number of Vessels, Artery",[2]; 1.0 μg disk,53 ± 5
same,"Number of Vessels, Vein",[2]; 1.0 μg disk,56 ± 8
same,"Total Vessel Length, A/V Ratio",[2]; 1.0 μg disk,1.2 ± 0.2
same,"Total Vessel Length, Artery",[2]; 1.0 μg disk,84 ± 5 mm
same,"Total Vessel Length, Vein",[2]; 1.0 μg disk,81 ± 11 mm
same,"Number of Vessels, A/V Ratio",[2]; 5.0 μg disk,1.6 ± 0.1
same,"Number of Vessels, Artery",[2]; 5.0 μg disk,79 ± 4
same,"Number of Vessels, Vein",[2]; 5.0 μg disk,51 ± 2
same,"Total Vessel Length, A/V Ratio",[2]; 5.0 μg disk,1.3 ± 0.1
same,"Total Vessel Length, Artery",[2]; 5.0 μg disk,107 ± 4 mm
same,"Total Vessel Length, Vein",[2]; 5.0 μg disk,82 ± 3 mm
same,effect on artery/vein ratios for vessel number and length,[2]; summary of Table II,decreased artery/vein ratios
same,effect on total number and length of blood vessels in comparison to controls,[2]; summary of Table II,decreased total number and length of blood vessels
same,toxicity (embryo survival),[3],all embryos survived
